From patent US20250163026A1, “Deuterium-Enriched Nirmatrelvir as SARS-CoV-2 Mpro Inhibitor for the Treatment of COVID-19” (priority 2023, published 2025)

Tested on: human coronavirus M^Pro
Experiment: Biochemical determination for human coronavirus M^pro assays
Details: at 30 μM, control compound, 1% DMSO
Experimental: The respective human coronavirus M^Pro in assay buffer (20 mM Tris-HCl, pH 7.3, 100 mM NaCl, 1 mM EDTA, 5 mM TCEP) and 0.1% BSA is added to assay-ready plates containing test compound (compound the present invention, Formula I). The enzymatic reaction is then immediately initiated with the addition of 5 μL substrate in assay buffer. Initial rates are measured by following the fluorescence of the cleaved substrate using a Spectramax (Molecular Devices) fluorescence plate reader in the kinetic format.
Test compounds (compounds of the present invention, compounds of Formula I) are tested at final concentrations up to […] in 1% DMSO and compared to the broad-spectrum antiviral compound GC376 [Y. Kim, S. Lovell, et al, Broad-spectrum antivirals against 3C or 3C-like proteases of picornaviruses, noroviruses, and coronaviruses. J. Virol. […] The reaction is allowed to progress for 60 minutes at 23° C. after which the plate is read on a Molecular Devices Spectramax M2e reader at an Ex/Em of 340 nm/490 nm.
Percent inhibition values are calculated based on control wells containing DMSO only (0% inhibition) and wells containing a control compound (100% inhibition). […] Percent activity values are calculated based on control wells containing no compound (100% activity) and wells containing the broad-spectrum antiviral compound GC376 (0% activity). […]

**Q.** With `CC(C)C[C@H](NC(=O)OCc1ccccc1)C(=O)N[C@@H](C[C@@H]1CCNC1=O)C(O)S(=O)(=O)[O-].[Na+]` (stereo partly shown) [GC376] as the molecule, how does the inhibition read?
**A.** 100%
